Laboratory results taken from patent publication US8597904B2, “Pharmaceutical compositions for the treatment of conditions responsive to proteasome inhibition” (priority 2007, dated 2013).
pIC50: −log10 of the molar value.

Key:
[1] = target: T1, human erythrocyte 20S proteasomes, trypsin-like activity (Homo sapiens, UniProt Q99436); assay: 20S Proteasome Assay Kit, Boc-LRR-AMC substrate; assay type: biochemical; settings: 37° C., 100 μM Boc-LRR-AMC
T1 construct: which contains human erythrocyte 20S proteasomes; purchased BIOMOL International AK-740; host or cells: human erythrocytes
Description: The eukaryotic 20S proteasome contains three catalytic subunits (β1, β2, and (β5) conferring caspase-like, trypsin-like and chymotrypsin-like proteolytic activities, respectively (Borissenko and Groll. 2007. Chem. Rev. 107:687-717, which is incorporated herein by reference in its entirety). Syringolin A was tested as a proteasome inhibitor using the 20S Proteasome Assay Kit for Drug Discovery AK-740 (BIOMOL® International, Plymouth Meeting, PA, USA), which contains human erythrocyte 20S proteasomes, in a 96-well microtiter plate. The fluorogenic substrates Suc-LLVY-AMC, Boc-LRR-AMC, and Z-LLE-AMC (BIOMOL® International) were used to monitor chymotrypsin-like, trypsin-like, and caspase-like activities, respectively. […] The release of free AMC (7-amino-4-methylcoumarin) at 37° C. was monitored with an MWGt Sirius HT fluorescence microplate reader (BIO-TEK® Instruments) equipped with a 360 nm excitation and a 460 nm emission filter. Proteolytic activities were measured as the increase in relative fluorescence units (RFU) over time (FIG. 7A-C). […] The initial velocities (vi) were determined from the time derivative of these curves and plotted versus the corresponding inhibitor concentration ([I]). […] The rate of covalent inhibition (kassociation), which equals kobs/[I] was calculated over the range of inhibitor concentrations given in parentheses in FIG. 7D. […]

[2] = target: T2, proteasome activity in SK-N-SH neuroblastoma cells (Homo sapiens, UniProt P28074); assay: Proteasome-Glo cell-based luminescent assay
T2 construct: endogenous in cells; host or cells: SK-N-SH
T2 sequence (P28074 60-263): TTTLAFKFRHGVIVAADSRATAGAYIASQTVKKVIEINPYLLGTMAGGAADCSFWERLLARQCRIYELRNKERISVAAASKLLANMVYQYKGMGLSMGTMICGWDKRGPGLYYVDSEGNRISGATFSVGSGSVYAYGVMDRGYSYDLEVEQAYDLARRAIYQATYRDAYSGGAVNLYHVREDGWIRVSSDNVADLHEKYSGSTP
Description: Syringolin A was tested as a proteasome inhibitor in vivo in cultured mammalian cancer cells. Inhibition of proteasome activity in human SK-N-SH neuroblastoma cells was measured using the Proteasome-Glo™ cell-based luminescent assay (Promega) in solid white 96-well microtiter cell culture plates. Ten μl of syringolin A (at various concentrations) was added to each well containing SK-N-SH cells (plated at a concentration of 1.0×10^5 cells/ml in 90 μl well volumes 24 hours prior) and a negative control and media only control were included. Cells were incubated with 1-100 μM syringolin A for 2 hours or 24 hours, and then equilibrated to room temperature for 15 minutes before 100 μl of Proteasome-Glo reagent (containing bioluminescent substrate Suc-LLVY-aminoluciferin) was added to the cells. Luminescence (indicated as relative luminescence units [RLU]) was read after 15-30 minutes on a Dynex MLX Luminometer.
To trace the kinetics of proteasome inhibition in the presence of syringolin, the same experiment was performed, but in this case, 100 μl of Proteasome-Glo reagent was added to cells first, followed by the addition of syringolin A at various concentrations, and the proteasome activity was measured over time.
The cell culture-based proteasome inhibition assay was performed as previously described (Groll et al. 2008. Nature 452:755-758, which is incorporated herein by reference in its entirety). Briefly, wells of white-walled 96-well microtiter cell culture plates were seeded at a density of 1×10^4 cells/well (SK-N-SH) or 5×10^3 cells/well (SKOV3) in 90 μl. After 24 hours, 10 μl GlbA or SylA were added at increasing concentrations (0-100 μM) and incubated for 2 hours. […] Cell Death Differ 9:1017-1025; Meng, et al. 1999. PNAS 96:10403-10408, each of which is incorporated herein by reference in its entirety) were used as positive and negative controls, respectively. Microtiter plates were then equilibrated to room temperature for 15 min before adding 100 μl of proteasome Glo™ reagent (containing bioluminescent substrate Suc-LLVY-aminoluciferin) per well. Luminescence was measured on a Dynex MLX luminometer, according to the manufacturer's instructions (Promega).

Row | Compound | inhibition of trypsin-like activity [1] | pIC50 ([2]; 2 hours, read-out: IC50 of proteasomal activity) | potency of GlbA relative to SylA ([2]; ratio of IC50) | proteasome activity in cells ([2]; 2 hours incubation) | kinetics of proteasome inhibition in cells ([2]; reagent added first, activity measured over time)
1 | CCCCCCC/C=C/C=C/C(=O)N[C@H](C(=O)N[C@H]1C[C@@H](O)CCNC(=O)/C=C/[C@H](C)NC1=O)[C@@H](C)O [glidobactin A] | less sensitive | 7.26 | approximately 26 fold |  | 
2 | CC(C)[C@H](NC(=O)N[C@H](C(=O)N[C@H]1/C=C/CCNC(=O)/C=C/[C@H](C(C)C)NC1=O)C(C)C)C(=O)O [syringolin A] | inhibited |  |  | dose-dependent decrease of proteasome activity | inhibited proteasome activity in a time and dose-dependent manner in the micromolar range
